Data published in patent US20250120961A1, “P53 MODULATORS” (Nested Therapeutics, Inc., priority 2023, published 2025).

Target: His-tagged p53-Y220C DNA binding domain (Homo sapiens, UniProt P04637, Y220C)
Experiment: Biochemical p53-Y220C and DNA binding assay (HTRF)
Conditions: inflection point of 10 points dose titration, 4 parameter curve fit; p53-Y220C DBD 100 nM, biotinylated dsDNA 200 nM, 27 to 29° C.; read-out: HTRF IP
Procedure, shortened: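 DBD (aa 94-312, 100 nM) mixed with compound and biotinylated consensus dsDNA (200 nM) in DPBS/20 mM NaCl/0.5% BSA, overnight at 4 °C, then 60 min at 27-29 °C; anti-His Tb/streptavidin-d2 HTRF read. Activation normalized to reference compound (500%) and DMSO (0%); 10-point curve, inflection point reported.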

SMILES	EC50 [nM]
OC1(CO/N=C/c2sc3c(N[C@@H]4CNC[C@@H]4F)cccc3c2CC(F)(F)F)CCOCC1 [Example 1-20, (E)-7-(((3R,4S)-4-fluoropyrrolidin-3-yl)amino)-3-(2,2,2-trifluoroethyl)benzo[b]thiophene-2-carbaldehyde O-((4-hydroxytetrahydro-2H-pyran-4-yl)methyl) oxime]	100 to 1000
CN1CC[C@@H](Nc2cccc3c(CC(F)(F)F)c(/C=C/CNC(=O)C4CC4)sc23)[C@@H](F)C1 [Example 6-1, N-((E)-3-(7-(((3S,4R)-3-fluoro-1-methylpiperidin-4-yl)amino)-3-(2,2,2-trifluoroethyl)benzo[b]thiophen-2-yl)allyl)cyclopropanecarboxamide]	100 to 1000
CS(=O)(=O)N1CC(O)C(O/N=C/c2sc3c(N[C@@H]4CNC[C@@H]4F)cccc3c2CC(F)(F)F)C1 (stereo partly drawn) [Example 1-38, (E)-7-(((3R,4S)-4-fluoropyrrolidin-3-yl)amino)-3-(2,2,2-trifluoroethyl)benzo[b]thiophene-2-carbaldehyde O-(4-hydroxy-1-(methylsulfonyl)pyrrolidin-3-yl) oxime]	100 to 1000
OC1CNCCC1O/N=C/c1sc2c(N[C@@H]3CNC[C@@H]3F)cccc2c1CC(F)(F)F (stereo partly drawn) [Example 1-33, (E)-7-(((3R,4S)-4-fluoropyrrolidin-3-yl)amino)-3-(2,2,2-trifluoroethyl)benzo[b]thiophene-2-carbaldehyde O-(3-hydroxypiperidin-4-yl) oxime]	> 1000
OC1CNCC1O/N=C/c1sc2c(N[C@@H]3CNC[C@@H]3F)cccc2c1CC(F)(F)F (stereo partly drawn) [Example 1-36, (E)-7-(((3R,4S)-4-fluoropyrrolidin-3-yl)amino)-3-(2,2,2-trifluoroethyl)benzo[b]thiophene-2-carbaldehyde O-(4-hydroxypyrrolidin-3-yl) oxime]	100 to 1000
OC1(CO/N=C/c2sc3c(N[C@@H]4CNC[C@@H]4F)cccc3c2CC(F)(F)F)CCNC1 (stereo partly drawn) [Example 1-12, (E)-7-(((3R,4S)-4-fluoropyrrolidin-3-yl)amino)-3-(2,2,2-trifluoroethyl)benzo[b]thiophene-2-carbaldehyde O-((3-hydroxypyrrolidin-3-yl)methyl) oxime]	100 to 1000
F[C@H]1CNC[C@H]1Nc1cccc2c(CC(F)(F)F)c(/C=N/OCc3ccccn3)sc12 [Example 3-3, (E)-7-(((3R,4S)-4-fluoropyrrolidin-3-yl)amino)-3-(2,2,2-trifluoroethyl)benzo[b]thiophene-2-carbaldehyde O-pyridin-2-ylmethyl oxime]	100 to 1000
F[C@H]1CNC[C@H]1Nc1cccc2c(CC(F)(F)F)c(/C=N/OCc3nc4ccccc4s3)sc12 [Example 3-5, (E)-7-(((3R,4S)-4-fluoropyrrolidin-3-yl)amino)-3-(2,2,2-trifluoroethyl)benzo[b]thiophene-2-carbaldehyde O-(benzo[d]thiazol-2-ylmethyl) oxime]	100 to 1000
OC(/C=C/c1sc2c(N[C@@H]3CNC[C@@H]3F)cccc2c1CC(F)(F)F)c1ccccn1 (stereo partly drawn) [Example 5-1, (E)-3-(7-(((3R,4S)-4-fluoropyrrolidin-3-yl)amino)-3-(2,2,2-trifluoroethyl)benzo[b]thiophen-2-yl)-1-(pyridin-2-yl)prop-2-en-1-ol]	> 1000
F[C@H]1CNC[C@H]1Nc1cccc2c(CC(F)(F)F)c(/C=N/OC3CCC3)sc12 [Example 2-24, (E)-7-(((3R,4S)-4-fluoropyrrolidin-3-yl)amino)-3-(2,2,2-trifluoroethyl)benzo[b]thiophene-2-carbaldehyde O-cyclobutyl oxime]	100 to 1000
CN1CC[C@@H](Nc2cccc3c(CC(F)(F)F)c(/C=N/OCc4nc5ccccc5[nH]4)sc23)[C@@H](F)C1 [Example 2-15, (E)-7-(((3S,4R)-3-fluoro-1-methylpiperidin-4-yl)amino)-3-(2,2,2-trifluoroethyl)benzo[b]thiophene-2-carbaldehyde O-((1H-benzo[d]imidazol-2-yl)methyl) oxime]	100 to 1000
CC(=O)N1CCC(=Cc2sc3c(N[C@@H]4CCNC[C@@H]4F)cccc3c2CC(F)(F)F)CC1 [Example 4-2, 1-(4-((7-(((3S,4R)-3-fluoropiperidin-4-yl)amino)-3-(2,2,2-trifluoroethyl)benzo[b]thiophen-2-yl)methylene)piperidin-1-yl)ethan-1-one]	> 1000
OC1(CO/N=C/c2sc3c(N[C@@H]4CNC[C@@H]4F)cccc3c2CC(F)(F)F)CCC1 [Example 1-18, (E)-7-(((3R,4S)-4-fluoropyrrolidin-3-yl)amino)-3-(2,2,2-trifluoroethyl)benzo[b]thiophene-2-carbaldehyde O-((1-hydroxycyclobutyl)methyl) oxime]	100 to 1000
CC(O/N=C/c1sc2c(N[C@@H]3CNC[C@@H]3F)cccc2c1CC(F)(F)F)c1cccnc1 (stereo partly drawn) [Example 2-25, (E)-7-(((3R,4S)-4-fluoropyrrolidin-3-yl)amino)-3-(2,2,2-trifluoroethyl)benzo[b]thiophene-2-carbaldehyde O-(1-(pyridin-3-yl)ethyl) oxime]	100 to 1000
CN1CC[C@@H](Nc2cccc3c(CC(F)(F)F)c(/C=C/C(O)c4cn[nH]c4)sc23)[C@@H](F)C1 (stereo partly drawn) [Example 5-8, (E)-3-(7-(((3S,4R)-3-fluoro-1-methylpiperidin-4-yl)amino)-3-(2,2,2-trifluoroethyl)benzo[b]thiophen-2-yl)-1-(1H-pyrazol-4-yl)prop-2-en-1-ol]	100 to 1000
OC1(CO/N=C/c2sc3c(N[C@@H]4CNC[C@@H]4F)cccc3c2CC(F)(F)F)CCCNC1 (stereo partly drawn) [Example 1-32, (E)-7-(((3R,4S)-4-fluoropyrrolidin-3-yl)amino)-3-(2,2,2-trifluoroethyl)benzo[b]thiophene-2-carbaldehyde O-((3-hydroxypiperidin-3-yl)methyl) oxime]	> 1000
CC(C)(O)CO/N=C/c1sc2c(N[C@@H]3CNC[C@@H]3F)cccc2c1CC(F)(F)F [Example 1-7, (E)-7-(((3R,4S)-4-fluoropyrrolidin-3-yl)amino)-3-(2,2,2-trifluoroethyl)benzo[b]thiophene-2-carbaldehyde O-(2-hydroxy-2-methylpropyl) oxime]	< 100
OC1(CO/N=C/c2sc3c(N[C@@H]4CNC[C@@H]4F)cccc3c2CC(F)(F)F)CCCC1 [Example 1-14, (E)-7-(((3R,4S)-4-fluoropyrrolidin-3-yl)amino)-3-(2,2,2-trifluoroethyl)benzo[b]thiophene-2-carbaldehyde O-((1-hydroxycyclopentyl)methyl) oxime]	100 to 1000
O=C(OCc1ccccc1)N1CCC(O)(CO/N=C/c2sc3c(N[C@@H]4CNC[C@@H]4F)cccc3c2CC(F)(F)F)CC1 [Example 1-25, benzyl 4-(((((E)-(7-(((3R,4S)-4-fluoropyrrolidin-3-yl)amino)-3-(2,2,2-trifluoroethyl)benzo[b]thiophen-2-yl)methylene)amino)oxy)methyl)-4-hydroxypiperidine-1-carboxylate]	> 1000
CC[C@H](CO)O/N=C/c1sc2c(NC3CNCC3F)cccc2c1CC(F)(F)F (stereo in doubt) [Example 1-4, (E)-7-(((3S,4R)-4-fluoropyrrolidin-3-yl)amino)-3-(2,2,2-trifluoroethyl)benzo[b]thiophene-2-carbaldehyde O-((R)-1-hydroxybutan-2-yl) oxime]	> 1000
CNC(=O)CO/N=C/c1cc2c(N[C@@H]3CCN(C)C[C@@H]3F)cccc2n1CC(F)(F)F [Example 2-7, 2-((((E)-(4-(((3S,4R)-3-fluoro-1-methylpiperidin-4-yl)amino)-1-(2,2,2-trifluoroethyl)-1H-indol-2-yl)methylene)amino)oxy)-N-methylacetamide]	> 1000
O=C(OCc1ccccc1)N1CCC(CO)(O/N=C/c2sc3c(N[C@@H]4CNC[C@@H]4F)cccc3c2CC(F)(F)F)CC1 [Example 1-26, benzyl 4-((((E)-(7-(((3R,4S)-4-fluoropyrrolidin-3-yl)amino)-3-(2,2,2-trifluoroethyl)benzo[b]thiophen-2-yl)methylene)amino)oxy)-4-(hydroxymethyl)piperidine-1-carboxylate]	> 1000
CC(C)N1C[C@H](F)[C@H](Nc2cccc3c(CC(F)(F)F)c(/C=N/OCC(C)(C)O)sc23)C1 [Example 2-22, (E)-7-(((3R,4S)-4-fluoro-1-isopropylpyrrolidin-3-yl)amino)-3-(2,2,2-trifluoroethyl)benzo[b]thiophene-2-carbaldehyde O-(2-hydroxy-2-methylpropyl) oxime]	< 100
OC1CCCCC1O/N=C/c1sc2c(N[C@@H]3CNC[C@@H]3F)cccc2c1CC(F)(F)F (stereo partly drawn) [Example 1-35, (E)-7-(((3R,4S)-4-fluoropyrrolidin-3-yl)amino)-3-(2,2,2-trifluoroethyl)benzo[b]thiophene-2-carbaldehyde O-(2-hydroxycyclohexyl) oxime]	100 to 1000
F[C@H]1CNCC[C@H]1Nc1cccc2c(CC(F)(F)F)c(/C=N/OCC3CC3)sc12 [Example 2-10, (E)-7-(((3S,4R)-3-fluoropiperidin-4-yl)amino)-3-(2,2,2-trifluoroethyl)benzo[b]thiophene-2-carbaldehyde O-cyclopropylmethyl oxime]	100 to 1000
CC[C@@H](O)CO/N=C/c1sc2c(N[C@@H]3CNC[C@@H]3F)cccc2c1CC(F)(F)F [Example 1-1, (E)-7-(((3R,4S)-4-fluoropyrrolidin-3-yl)amino)-3-(2,2,2-trifluoroethyl)benzo[b]thiophene-2-carbaldehyde O-((R)-2-hydroxybutyl) oxime]	100 to 1000
COc1cc(S(C)(=O)=O)ccc1NC/C=C/c1sc2c(N[C@@H]3CCN(C)C[C@@H]3F)cccc2c1CC(F)(F)F [Example 7-2, (3S,4R)-3-fluoro-N-(2-((E)-3-((2-methoxy-4-(methylsulfonyl)phenyl)amino)prop-1-en-1-yl)-3-(2,2,2-trifluoroethyl)benzo[b]thiophen-7-yl)-1-methylpiperidin-4-amine]	< 100
